Assay results as given in publication PMC12467033, “Exploring the Inhibitory Potential of Six Porphyrin Compounds Against α-Amylase and α-Glucosidase Linked to Diabetes” (Biomolecules, 2025).
Values joined by “and” are separate entries in the source; they are usually repeats but may differ in a detail not shown here. Equal entries are not always repeated. Where two headings read alike, the source gives them in different places.

Key:
α-amylase [1] = biological target: T1, α-amylase (Sus scrofa, UniProt P00690); assay: Mode of α-AMY inhibition (reversibility, Lineweaver–Burk kinetics); format: biochemical
T1 sequence (P00690 16-511): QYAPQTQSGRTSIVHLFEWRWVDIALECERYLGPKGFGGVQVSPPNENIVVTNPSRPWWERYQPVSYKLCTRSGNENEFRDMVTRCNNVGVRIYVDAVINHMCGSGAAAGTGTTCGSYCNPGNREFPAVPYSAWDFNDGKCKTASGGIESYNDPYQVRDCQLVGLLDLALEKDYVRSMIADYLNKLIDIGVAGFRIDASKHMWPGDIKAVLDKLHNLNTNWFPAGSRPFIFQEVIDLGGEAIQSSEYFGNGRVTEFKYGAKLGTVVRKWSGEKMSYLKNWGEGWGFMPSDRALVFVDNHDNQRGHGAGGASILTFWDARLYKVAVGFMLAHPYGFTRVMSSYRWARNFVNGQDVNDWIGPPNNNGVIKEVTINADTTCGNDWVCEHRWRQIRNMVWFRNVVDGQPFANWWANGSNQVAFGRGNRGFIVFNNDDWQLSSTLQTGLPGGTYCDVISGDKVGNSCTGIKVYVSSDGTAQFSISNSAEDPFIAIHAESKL
Source text: (§1) In the experiment, the concentration of the fixed substrate Gal-G2-α-CNP/pNPG solution was 5 mmol/L, and the concentrations of the two enzymes (100, 200, 300, 400 U/L) were used to determine the effect of different concentrations of porphyrins on enzyme activity. The concentration of the enzyme was 200 U/L, and the concentration of the substrate Gal-G2-α-CNP/pNPG solution (2.5, 5, 7.5, 10 mmol/L) was used to determine the effect of different concentrations of porphyrins on the enzyme-catalyzed substrate activity.
(§2) Upon identifying the type of inhibition, the kinetic equations vary for different inhibition types.
(§3) In the formula, v, Vmax, Km, Ki, and Kis represent the reaction rate, maximum reaction rate, Michaelis constant, and free enzyme inhibition constant, respectively, and the binding enzyme inhibition constant. [S] denotes the substrate concentration. [I] denotes the inhibitor concentration.

α-glucosidase = α-glucosidase (Saccharomyces cerevisiae, UniProt P53341); format: biochemical
Source text: as §1, §2, §3

α-amylase [2] = biological target: T1, α-amylase; assay: Fluorescence quenching, binding and thermodynamics with α-amylase
Source text: In the α-amylase experiment, a series of porphyrins and amylase (200 U/L) were mixed in a volume ratio of 1:1.
The Stern–Volmer equation [35] was adopted to determine the quenching mechanisms between six porphyrin compounds and both enzymes in the experimental group, with Formula (6):(6) F0/F=1+Ksv[Q]=1+Kqτ0[Q]
The Stern–Volmer equation was adapted based on experimental data to more accurately characterize the quenching behavior [36], with Formula (7):(7) F0/F=e^Ksv[Q]=e^Kqτ0[Q]
In the formula, the fluorescence quenching ratio was calculated as F0/F, where F0 corresponds to the emission intensity of pure α-amylase solution (control) and F denotes the intensity measured after the incremental addition of porphyrin ligands. KSV and Kq denote the Stern–Volmer quenching constant and the bimolecular quenching rate constant, respectively, τ0 (10^−8 s) is the average fluorescence lifetime of the fluorophore in the absence of quencher, and [Q] indicates the concentration of porphyrin compounds.
Due to the presence of an internal filtration effect, a decrease in the fluorescence intensity of the system may occur. Therefore, all fluorescence data were corrected using Formula (8) to eliminate the internal filtration effect.(8) Fcor=Fobse^(Aex+Aem)/2
The evaluation of the interaction forces between porphyrin compounds and the two enzymes can be achieved by calculating thermodynamic parameters. When both ΔH^0 and ΔS^0 are positive, the predominant interaction force is hydrophobic. When both ΔH^0 and ΔS^0 are negative, the main forces are hydrogen bonding and van der Waals forces. When ΔH^0 < 0 and ΔS^0 > 0, the primary interaction is electrostatic attraction.
The thermodynamic parameters were calculated using Formulas (9) and (10), and then the Van’t Hoff plot for the interactions between the porphyrin compounds and the two enzymes was generated by plotting lnKa on the Y-axis versus 1/T on the X-axis.(9) lnKa=−ΔH^0/RT+ΔS^0/R (10) ΔG^0=ΔH^0−TΔS^0=−RTlnKa

α-amylase [3] = biological target: T1, α-amylase; assay: FTIR secondary structure analysis of α-AMY complexes; conditions: enzyme–porphyrin molar ratio 1:2, amide I band
Source text: A molar ratio of 1:2 (α-amylase/α-glucosidase)–porphyrin solution was placed in a cryocentrifugal concentrator and the dried solid sample was mixed with dry KBr and measured using a Nicolet IS-50 FTIR Spectrometer (ThermoFisher, Waltham, MA, USA) with a scanning range of 4000–400 cm^−1 and a resolution of 4 cm^−1. The overlapping peaks in the amide I band (1700–1600 cm^−1) were further analyzed into multiple feature sub-peaks, and quantitative analysis of the relative content of various secondary structures in proteins using curve fitting methods was performed.

[4] = enzyme 100–400 U/L, substrate 5 mmol/L
[5] = free enzyme inhibition constant

Chain of α-glucosidase (P53341 whole entry): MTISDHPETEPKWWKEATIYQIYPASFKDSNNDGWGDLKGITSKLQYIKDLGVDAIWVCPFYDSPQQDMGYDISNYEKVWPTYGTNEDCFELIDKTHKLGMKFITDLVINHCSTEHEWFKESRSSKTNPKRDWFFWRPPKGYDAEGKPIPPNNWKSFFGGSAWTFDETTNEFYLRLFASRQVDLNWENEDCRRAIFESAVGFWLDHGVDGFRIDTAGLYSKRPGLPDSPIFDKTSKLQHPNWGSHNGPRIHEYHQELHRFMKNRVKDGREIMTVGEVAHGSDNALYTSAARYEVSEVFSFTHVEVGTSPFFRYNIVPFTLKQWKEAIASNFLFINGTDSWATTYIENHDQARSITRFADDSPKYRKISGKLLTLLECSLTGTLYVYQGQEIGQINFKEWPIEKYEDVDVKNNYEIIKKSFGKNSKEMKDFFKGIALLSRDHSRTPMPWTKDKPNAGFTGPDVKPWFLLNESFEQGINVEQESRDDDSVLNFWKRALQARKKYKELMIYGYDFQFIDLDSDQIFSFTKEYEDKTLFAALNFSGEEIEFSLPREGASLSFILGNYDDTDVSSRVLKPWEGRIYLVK

With `O=C(O)c1ccc(-c2c3nc(c(-c4ccc(C(=O)O)cc4)c4ccc([nH]4)c(-c4ccc(C(=O)O)cc4)c4nc(c(-c5ccc(C(=O)O)cc5)c5ccc2[nH]5)C=C4)C=C3)cc1.[Ni+2]` [Ni–TCPP, nickel (II) meso-tetra (4-carboxyphenyl) porphine] the Km (α-amylase [1]; C 40 μg/mL) was 3.6229 ± 0.1082 µg/mL, the Vmax (α-amylase [1]; C 40 μg/mL) was 0.1456 ± 0.0043 ΔOD/min and the Km (α-amylase [1]; C 80 μg/mL) was 3.6134 ± 0.1167 µg/mL. The Vmax (α-amylase [1]; C 80 μg/mL) was 0.1238 ± 0.0040 ΔOD/min, the Km (α-amylase [1]; C 120 μg/mL) was 3.6072 ± 0.0593 µg/mL and the Vmax (α-amylase [1]; C 120 μg/mL) was 0.1032 ± 0.0017 ΔOD/min. For the same molecule, the Km (α-amylase [1]; C 160 μg/mL) was 3.6027 ± 0.1141 µg/mL, the Vmax (α-amylase [1]; C 160 μg/mL) was 0.0901 ± 0.0029 ΔOD/min and the Km (α-amylase [1]; C 200 μg/mL) was 3.5987 ± 0.0938 µg/mL. For the same molecule, the Vmax (α-amylase [1]; C 200 μg/mL) was 0.0799 ± 0.0021 ΔOD/min, the “type of inhibition of α-amylase” value (α-amylase [1]; Lineweaver–Burk plots) was “non-competitive inhibition” and the “reversibility of inhibition of α-amylase” value (α-amylase [1]; [4]) was “reversible inhibition”. For the same molecule, the Ki (α-amylase [1]; [5]) was 157.9542 ± 0.1375 µg/mL, the Km (α-glucosidase) was 3.0491 ± 0.0776 µg/mL and 3.3243 ± 0.0748 µg/mL and 3.5279 ± 0.0812 µg/mL and 3.8090 ± 0.1419 µg/mL and 4.1248 ± 0.0704 µg/mL and the Vmax (α-glucosidase; C 5 μg/mL) was 0.1036 ± 0.0026 ΔOD/min. The Vmax (α-glucosidase; C 7.5 μg/mL) was 0.0909 ± 0.0020 ΔOD/min, the Vmax (α-glucosidase; C 10 μg/mL) was 0.0791 ± 0.0018 ΔOD/min and the Vmax (α-glucosidase; C 15 μg/mL) was 0.0628 ± 0.0023 ΔOD/min. The Vmax (α-glucosidase; C 25 μg/mL) was 0.0444 ± 0.0008 ΔOD/min, the “type of inhibition of α-glucosidase” value (α-glucosidase; Lineweaver–Burk plots) was “mixed type” and the “reversibility of inhibition of α-glucosidase” value (α-glucosidase; [4]) was “reversible inhibition”. The Kis (α-glucosidase; enzyme–substrate complex inhibition constant) was 9.2257 ± 0.0312 µg/mL, the Ki (α-glucosidase; [5]) was 3.8703 ± 0.0201 µg/mL and the “quenching mechanism of α-amylase fluorescence” value (α-amylase [2]; Stern–Volmer plots, 298–310 K) was “pure static quenching”. For the same molecule, the “Ka (binding constant)” value (α-amylase [2]; T 298 K) was 99.31 ± 0.12 ×10^5 L/mol, the Kq (α-amylase [2]; T 298 K) was 9.78 ± 0.03 ×10^12 L/mol/s and the Ksv (α-amylase [2]; T 298 K) was 9.78 ± 0.03 ×10^4 L/mol. The “n (number of binding sites)” value (α-amylase [2]; T 298 K) was 1.44, the “ΔG^0” value (α-amylase [2]; T 298 K) was -9.541 ± 0.019 kcal/mol and the “Ka (binding constant)” value (α-amylase [2]; T 304 K) was 5.75 ± 0.04 ×10^5 L/mol. The Kq (α-amylase [2]; T 304 K) was 8.47 ± 0.07 ×10^12 L/mol/s, the Ksv (α-amylase [2]; T 304 K) was 8.47 ± 0.07 ×10^4 L/mol and the “n (number of binding sites)” value (α-amylase [2]; T 304 K) was 1.19. For the same molecule, the “ΔG^0” value (α-amylase [2]; T 304 K) was -8.011 ± 0.014 kcal/mol, the “Ka (binding constant)” value (α-amylase [2]; T 310 K) was 0.61 ± 0.02 ×10^5 L/mol and the Kq (α-amylase [2]; T 310 K) was 7.11 ± 0.05 ×10^12 L/mol/s. For the same molecule, the Ksv (α-amylase [2]; T 310 K) was 7.11 ± 0.05 ×10^4 L/mol, the “n (number of binding sites)” value (α-amylase [2]; T 310 K) was 0.99 and the “ΔG^0” value (α-amylase [2]; T 310 K) was -6.785 ± 0.017 kcal/mol. For the same molecule, the “ΔH^0” value (α-amylase [2]; Van’t Hoff, 298–310 K) was -78.002 ± 0.043 kcal/mol, the “ΔS^0” value (α-amylase [2]; Van’t Hoff, 298–310 K) was −961.90 ± 0.08 J/mol/k and the “Random Coil” value (α-amylase [3]) was 21.40 ± 0.05%. It also gave a α-Helix (α-amylase [3]) of 20.76 ± 0.06%, a β-Antiparallel (α-amylase [3]) of 10.30 ± 0.03% and a β-Sheet (α-amylase [3]) of 11.20 ± 0.02%. For the same molecule, the β-Turn (α-amylase [3]) was 36.33 ± 0.13%.
